# How the values were obtained:
# Format in all cases: in vivo, human
# participants with NT2 = assay: ESS total score, Phase 2 NT2 trial; settings: not statistically significant (p>0.05)
# Description: In some aspects of the methods described herein, the subject experiences a lower Epworth Sleepiness Scale (ESS) total score after a treatment period compared to an untreated subject. The ESS is a subjective, self-administered scale that has been validated and used extensively as a key endpoint in studies in patients with narcolepsy to measure excessive daytime sleepiness (EDS). The ESS provides individuals with 8 different situations of daily life and asks them how likely they are to fall asleep in those situations (scored 0 to 3) and to try to imagine their likelihood of dozing even if they have not actually been in the identical situation; the scores are summed to give an overall score of 0 to 24. Higher scores indicate stronger subjective daytime sleepiness, and scores below 10 are considered to be within the reference range.
# Randomization was stratified by region. Starting on the morning of Day 1, the study drug was administered at approximately the same time each day for 8 weeks.
# In this study, the interventions includes: • Dose Regimen 1:2 mg followed by 2 mg approximately 3 hours apart. • Dose Regimen 2:2 mg followed by 5 mg approximately 3 hours apart or 7 mg once daily. • Other products required for the study: placebo.
# Eligible participants were age 18-70 years, with Epworth Sleepiness Scale (ESS) score>12 and no other current EDS-related medical conditions. […]
# participants with NT1 [1] = assay: At-home continuous accelerometry of sleep, Phase 2 NT1 trial
# Description: Polysomnography (PSG) was collected at baseline and after 27 and 54 days of treatment. Sleep was manually scored following AASM guidelines; sleep metrics were extracted then computed by whole night and by quarter-night. Continuous accelerometry (Empatica EmbracePlus watch) allowed assessment of sleep in a naturalistic manner at home. Daily sleep diaries were used to capture subjective reports. Mixed effects models were fit with treatment, quarter-night, visit, and their interactions as fixed effects and random intercepts per subject. A reference PSG dataset (Vilela M, et al. J Sleep Res 2024; e14216) from CHU Montpellier (49 clinical controls and 114 patients with NT1, all drug-free) was analyzed to establish DNS characteristics of NT1.
# Consistent with sleep diaries, adverse events of mild to moderate insomnia were reported by 48% of Compound A-treated participants and most resolved within 1 week. […] Conclusion: Treatment with Compound A may help normalize REM architecture and reduce disturbing dreams without changing WASO or deep sleep.
# participants with NT1 [2] = assay: Clinical and Patient Global Impression (CGI, PGI), Phase 2 NT1 trial; settings: Week 8, patients treated with Compound A
# Description: The Patient Global Impression Scale-Severity Scale (PGI-S) provides a participant-perceived assessment of overall symptoms (4-point Likert-type scale, “normal to “severe”) administered at baseline while the Patient Global Impression-Improvement Scale (PGI-I) provides a participant-perceived summary of global treatment effect on daytime sleepiness and cataplexy (7-point Likert-type scale, “very much improved” to “very much worse”) administered at different points during treatment.
# The Clinical Global Impression Scale provides an overall clinician-determined summary measure of a participant's treatment experience that takes into account all available information, including knowledge of the participant's history, psychosocial circumstances, symptoms, behavior, and the impact of the symptoms on the participant's ability to function. The assessment consists of various subscales. One is the Clinical Global Impression-Severity (CGI-S). The CGI-S assesses the severity of overall narcolepsy symptoms. It uses a 7-point Likert-type scale ranging from “normal, not at all ill” to “among the most extremely ill patients.”
# Another subscale is the Clinical Global Impression-Improvement (CGI-I), which assesses improvement of symptoms. The CGI-I asks clinicians to rate the extent to which their patients' current overall narcolepsy symptoms are improved (compared with the start of the study). […]
# participants with NT1 [3] = assay: Functional Impacts of Narcolepsy Instrument (FINI), Phase 2 NT1 trial; settings: range across Compound A doses
# Description: The functional impact of NT1 on subjects can be assessed by the FINI. The FINI is a fit-for-purpose 28-item instrument developed by the sponsor to ensure easy to interpret concepts that are meaningful to narcolepsy patients. The FINI measures the functional impacts of narcolepsy across 6 domains: Tiredness (items 1-7), Cognitive Functioning (items 8-12), Cataplexy (items 13-17), Social Activities (items 18-21), Everyday Activities (items 22-25), and Everyday Responsibilities (items 26-28). Each item asks about the impact that narcolepsy has had on their daily functioning during the past 7 days, and scored from 0-4, where 0 indicates the best health and 4 the worst. There is no total score; for each participant, an average score is calculated for each domain, if at least half the items in the domain have been answered:
# Sum of responses in the domain/Number of completed items in the domain
# The average domain score is then standardized to a 0-100 scale, where 0 indicates the best health and 100 the worst health. A decrease from baseline would thus indicate improved health:
# Standardized score=average score/4×100
# An analysis of exploratory data from the trial investigated the effect of Compound A on functioning and HRQoL in individuals with ICSD-3 confirmed NT1. Participants aged 18-70 years (Japan: 16-70), with an Epworth Sleepiness Scale (ESS) score>12, and ≥4 partial/complete episodes of cataplexy/week were eligible for inclusion. Participants were randomized to oral Compound A (0.5 mg twice 3 hours apart, 2 mg twice 3 hours apart, 2 mg then 5 mg 3 hours later, or 7 mg once-daily), or placebo. Exploratory endpoints included 3 domains (social activities, everyday activities, and everyday responsibilities) from the 6-domain Functional Impacts of Narcolepsy Instrument (FINI) in which each item uses 5-point Likert scale and higher standardized domain scores (0-100) indicate more severe impact; the 36-item short-form (SF-36); and the EuroQoL 5-Dimensions 5-Levels (EQ-5D-5L) questionnaire.
compound,measurement,setting,value
"CCS(=O)(=O)N[C@@H]1[C@H](Cc2cccc(-c3cc(F)cc(F)c3)c2F)N(C(=O)C(C)(C)O)CC1(F)F [Compound A, N-{(2S,3R)-4,4-difluoro-1-(2-hydroxy-2-methylpropanoyl)-2-[(2,3′,5′-trifluoro[1,1′-biphenyl]-3-yl)methyl]pyrrolidin-3-yl}ethanesulfonamide]",ESS total score change from baseline to Week 8 versus placebo,participants with NT2; 2 mg/2 mg,−0.32 points
same,ESS total score change from baseline to Week 8 versus placebo,participants with NT2; 2/5 mg,−3.06 points
same,"Number of nocturnal awakenings, awakenings >5 min and longest sleep bout (accelerometry)",participants with NT1 [1]; 2 mg/2 mg cohort (FIG. 7),small but statistically significant reductions
same,"At-home nighttime TST and WASO, change from baseline","participants with NT1 [1]; accelerometry, overall (FIG. 7)",minimal changes overall
same,At-home TST,"participants with NT1 [1]; week 1 only, 2 mg/5 mg and 7 mg QD cohorts, resolving over time",reduced TST was observed
same,Patients much/very much improved on the PGI and CGI,participants with NT1 [2],> 70%
same,"FINI-Everyday Activities, LS mean change from baseline to Week 8",participants with NT1 [3],−41.4 to −54.5
same,"FINI-Everyday Responsibilities, LS mean change from baseline to Week 8",participants with NT1 [3],−35.0 to −53.7
same,"FINI-Social Activities, LS mean change from baseline to Week 8",participants with NT1 [3],−29.9 to −43.1

# — patent US20250375417A1, “OREXIN RECEPTOR 2 (OX2R) AGONIST FOR USE IN NARCOLEPSY TYPE 1 (NT1)” (TAKEDA PHARMACEUTICAL COMPANY LIMITED, priority 2024, published 2025)
